Test results published in patent US20230085307A1, “PYRIDAZINONE COMPOUND AND HERBICIDE” (NISSAN CHEMICAL CORPORATION, priority 2019, published 2023).

Columns and labels:
southern crabgrass = test: Test Example 5: herbicidal effect by foliage application, plastic box (Table 20, symbol F); type: in vivo, southern crabgrass (Digitaria ciliaris); settings: foliage application, 320 g/ha, evaluated three weeks after application
Outline: (§1)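 Foliar spray test: emulsion formulation diluted in water to a set application rate, sprayed onto 14-day-old plants raised in diluvial soil at 25° C to 30° C under glass. Both herbicidal effect and crop effect rated visually three weeks later.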

chickweed = test: Test Example 5: herbicidal effect by foliage application, plastic box (Table 20, symbol P); type: in vivo, common chickweed (Stellaria media); settings: foliage application, 320 g/ha, evaluated three weeks after application
Outline: as §1

blackgrass = test: Test Example 5: herbicidal effect by foliage application, plastic box (Table 20, symbol J); type: in vivo, blackgrass (Alopecurus myosuroides); settings: foliage application, 320 g/ha, evaluated three weeks after application
Outline: as §1

wild oat = test: Test Example 5: herbicidal effect by foliage application, plastic box (Table 20, symbol I); type: in vivo, wild oat (Avena fatua); settings: foliage application, 320 g/ha, evaluated three weeks after application
Outline: as §1

persian speedwell = test: Test Example 5: herbicidal effect by foliage application, plastic box (Table 20, symbol R); type: in vivo, Persian speedwell (Veronica persica); settings: foliage application, 320 g/ha, evaluated three weeks after application
Outline: as §1

velvetleaf = test: Test Example 5: herbicidal effect by foliage application, plastic box (Table 20, symbol M); type: in vivo, velvetleaf (Abutilon theophrasti); settings: foliage application, 320 g/ha, evaluated three weeks after application
Outline: as §1

redroot pigweed = test: Test Example 5: herbicidal effect by foliage application, plastic box (Table 20, symbol N); type: in vivo, redroot pigweed (Amaranthus retroflexus); settings: foliage application, 320 g/ha, evaluated three weeks after application
Outline: as §1

rice flat sedge = test: Test Example 3: herbicidal effect by foliage application, Wagner pot (Table 18, symbol E); type: in vivo, rice flat sedge (Cyperus iria); settings: amount of applied herbicide 320 g/ha
Outline: (§2)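 Plants were sown in alluvial soil held under 0.1–0.5 cm standing water and grown 14 days in a greenhouse at 25–30 °C. An emulsifiable formulation, water-diluted to the set dose, was then sprayed onto the foliage, and effects were scored three weeks later using previously defined criteria.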

Chinese sprangletop = test: Test Example 3: herbicidal effect by foliage application, Wagner pot (Table 18, symbol D); type: in vivo, chinese sprangletop (Leptochloa chinensis); settings: amount of applied herbicide 320 g/ha
Outline: as §2

green foxtail = test: Test Example 5: herbicidal effect by foliage application, plastic box (Table 20, symbol G); type: in vivo, green foxtail (Setaria viridis); settings: foliage application, 320 g/ha, evaluated three weeks after application
Outline: as §1

lambsquarters = test: Test Example 5: herbicidal effect by foliage application, plastic box (Table 20, symbol O); type: in vivo, lambsquarters (Chenopodium album); settings: foliage application, 320 g/ha, evaluated three weeks after application
Outline: as §1

barnyard grass [1] = test: Test Example 3: herbicidal effect by foliage application, Wagner pot (Table 18, symbol H); type: in vivo, barnyard grass (Echinochloa crus-galli); settings: amount of applied herbicide 320 g/ha
Outline: as §2

Italian ryegrass = test: Test Example 5: herbicidal effect by foliage application, plastic box (Table 20, symbol K); type: in vivo, Italian ryegrass (Lolium multiflorum); settings: foliage application, 320 g/ha, evaluated three weeks after application
Outline: as §1

windgrass = test: Test Example 5: herbicidal effect by foliage application, plastic box (Table 20, symbol L); type: in vivo, windgrass (Apera spica-venti); settings: foliage application, 320 g/ha, evaluated three weeks after application
Outline: as §1

barnyard grass [2] = test: Test Example 5: herbicidal effect by foliage application, plastic box (Table 20, symbol H); type: in vivo, barnyard grass (Echinochloa crus-galli); settings: foliage application, 320 g/ha, evaluated three weeks after application
Outline: as §1

SMILES | herbicidal effect on F: southern crabgrass (criteria 0-5) (southern crabgrass) | herbicidal effect on P: chickweed (criteria 0-5) (chickweed) | herbicidal effect on J: blackgrass (criteria 0-5) (blackgrass) | herbicidal effect on I: wild oat (criteria 0-5) (wild oat) | herbicidal effect on R: persian speedwell (criteria 0-5) (persian speedwell) | herbicidal effect on M: velvetleaf (criteria 0-5) (velvetleaf) | herbicidal effect on N: redroot pigweed (criteria 0-5) (redroot pigweed) | herbicidal effect on E: rice flat sedge (rice flat sedge) | herbicidal effect on D: Chinese sprangletop (Chinese sprangletop) | herbicidal effect on G: green foxtail (criteria 0-5) (green foxtail) | herbicidal effect on O: lambsquarters (criteria 0-5) (lambsquarters) | herbicidal effect on H: barnyard grass (barnyard grass [1]) | herbicidal effect on K: Italian ryegrass (criteria 0-5) (Italian ryegrass) | herbicidal effect on L: windgrass (criteria 0-5) (windgrass) | herbicidal effect on H: barnyard grass (criteria 0-5) (barnyard grass [2])
CSc1ccccc1-c1sc2ccc(C)cc2c1-c1c(O)c(C)nn(C)c1=O [2-142] | 0 (Herbicidal rate of 5% or less (almost no effect)) | 4 (Herbicidal rate of 70% or more and less than 90%) | 1 (Herbicidal rate of 5% or more and less than 20%) | 1 (Herbicidal rate of 5% or more and less than 20%) | 3 (Herbicidal rate of 40% or more and less than 70%) | 0 (Herbicidal rate of 5% or less (almost no effect)) | 0 (Herbicidal rate of 5% or less (almost no effect)) | 2 (Herbicidal rate of 20% or more and less than 40%) | 0 (Herbicidal rate of 5% or less (almost no effect)) | 0 (Herbicidal rate of 5% or less (almost no effect)) | 0 (Herbicidal rate of 5% or less (almost no effect)) | 2 (Herbicidal rate of 20% or more and less than 40%) | 1 (Herbicidal rate of 5% or more and less than 20%) | 0 (Herbicidal rate of 5% or less (almost no effect)) | 0 (Herbicidal rate of 5% or less (almost no effect))
CCCC(=O)Oc1c(C)nn(C)c(=O)c1-c1c(-c2ccc([N+](=O)[O-])cc2)sc2ccc(C)cc12 [2-145] | 1 (Herbicidal rate of 5% or more and less than 20%) | 5 (Herbicidal rate of 90% or more (almost completely withered)) | 0 (Herbicidal rate of 5% or less (almost no effect)) | 0 (Herbicidal rate of 5% or less (almost no effect)) | 5 (Herbicidal rate of 90% or more (almost completely withered)) | 4 (Herbicidal rate of 70% or more and less than 90%) | 4 (Herbicidal rate of 70% or more and less than 90%) | 4 (Herbicidal rate of 70% or more and less than 90%) | 0 (Herbicidal rate of 5% or less (almost no effect)) | 3 (Herbicidal rate of 40% or more and less than 70%) | 4 (Herbicidal rate of 70% or more and less than 90%) | 3 (Herbicidal rate of 40% or more and less than 70%) | 3 (Herbicidal rate of 40% or more and less than 70%) | 0 (Herbicidal rate of 5% or less (almost no effect)) | 3 (Herbicidal rate of 40% or more and less than 70%)
COc1ccc(-c2sc3ccc(C)cc3c2-c2c(O)c(C)nn(C)c2=O)cc1OC [2-152] | 0 (Herbicidal rate of 5% or less (almost no effect)) | 5 (Herbicidal rate of 90% or more (almost completely withered)) | 0 (Herbicidal rate of 5% or less (almost no effect)) | 0 (Herbicidal rate of 5% or less (almost no effect)) | 4 (Herbicidal rate of 70% or more and less than 90%) | 0 (Herbicidal rate of 5% or less (almost no effect)) | 0 (Herbicidal rate of 5% or less (almost no effect)) | 3 (Herbicidal rate of 40% or more and less than 70%) | 0 (Herbicidal rate of 5% or less (almost no effect)) | 0 (Herbicidal rate of 5% or less (almost no effect)) | 0 (Herbicidal rate of 5% or less (almost no effect)) | 0 (Herbicidal rate of 5% or less (almost no effect)) | 2 (Herbicidal rate of 20% or more and less than 40%) | 0 (Herbicidal rate of 5% or less (almost no effect)) | 0 (Herbicidal rate of 5% or less (almost no effect))
COc1cc(F)ccc1-c1sc2ccc(N(C)C(C)=O)cc2c1-c1c(O)c(C)nn(C)c1=O [2-177] | 0 (Herbicidal rate of 5% or less (almost no effect)) | 5 (Herbicidal rate of 90% or more (almost completely withered)) | 3 (Herbicidal rate of 40% or more and less than 70%) | 0 (Herbicidal rate of 5% or less (almost no effect)) | 4 (Herbicidal rate of 70% or more and less than 90%) | 3 (Herbicidal rate of 40% or more and less than 70%) | 4 (Herbicidal rate of 70% or more and less than 90%) | 3 (Herbicidal rate of 40% or more and less than 70%) | 4 (Herbicidal rate of 70% or more and less than 90%) | 3 (Herbicidal rate of 40% or more and less than 70%) | 3 (Herbicidal rate of 40% or more and less than 70%) | 3 (Herbicidal rate of 40% or more and less than 70%) | 0 (Herbicidal rate of 5% or less (almost no effect)) | 3 (Herbicidal rate of 40% or more and less than 70%) | 0 (Herbicidal rate of 5% or less (almost no effect))
Cc1nn(C)c(=O)c(-c2c(-c3cccc(SC(C)C)c3)sc3ccc(F)cc23)c1O [2-250] | 0 (Herbicidal rate of 5% or less (almost no effect)) | 5 (Herbicidal rate of 90% or more (almost completely withered)) | 3 (Herbicidal rate of 40% or more and less than 70%) | 2 (Herbicidal rate of 20% or more and less than 40%) | 5 (Herbicidal rate of 90% or more (almost completely withered)) | 2 (Herbicidal rate of 20% or more and less than 40%) | 5 (Herbicidal rate of 90% or more (almost completely withered)) | 3 (Herbicidal rate of 40% or more and less than 70%) | 2 (Herbicidal rate of 20% or more and less than 40%) | 0 (Herbicidal rate of 5% or less (almost no effect)) | 3 (Herbicidal rate of 40% or more and less than 70%) | 3 (Herbicidal rate of 40% or more and less than 70%) | 1 (Herbicidal rate of 5% or more and less than 20%) | 3 (Herbicidal rate of 40% or more and less than 70%) | 0 (Herbicidal rate of 5% or less (almost no effect))
